The source of these data is US8980911B2, “Heterocyclic compounds as protein kinase inhibitors” (Daiichi Sankyo Company, Limited, priority 2011, dated 2015).

Holding throughout (format): biochemical
Experiment [1] concerns the target T1, JAK2 (Homo sapiens, UniProt O60674).
T1 construct: All enzymes only contain the catalytic domain; His (N); purchased Carna Bioscience, Inc; host or cells: baculovirus expression system
Briefly: In vitro enzyme assay (cell-free HTRF kinase assay), JAK2. The following applies: catalytic domain, His-tag; ATP 10 μM, SRCtide 25 nM, reaction 30 min. As to the method:
(§1) Kinase buffer [50 mM HEPES (pH 7.5), 1 mM EGTA, 10 mM MgCl2, 2 mM DTT and 0.01% Tween-20) was prepared and dilutions of a compound of formula (I) and other reagents were subsequently made in it. Two times concentrated compound of formula (I) solution: A compound of formula (I) was diluted to 100-fold final concentration in DMSO, followed by 50-fold dilution with Kinase buffer (1% DMSO final concentration). Four times concentrated Substrate/ATP mix solution: Biotin-SRCtide and ATP were diluted to 4-fold final concentration in Kinase buffer. Biotin-SRCtide solution (purchased from Anaspec) was mixed with ATP solution (1:1). Four times concentrated Enzyme solution: JAK1 or JAK2 or JAK3 or TYK2 enzyme [Human baculo virus expressed JAK1, JAK2, JAK3 and TYK2 were purchased from Carna Bioscience, Inc. All enzymes only contain the catalytic domain. JAK1 (aa 850-1154) and TYK2 (aa 871-1187) are expressed with an N-terminally fused GST-tag, and JAK2 and JAK3 with an N-terminally fused His-tag] was diluted to 4-fold final concentration in Kinase buffer and always kept on ice. Detection buffer: LANCE detection buffer (10 times concentrated) was diluted 10-fold in H2O. Four times concentrated stop solution: EDTA was diluted to a concentration of 40 mM in detection buffer. Four times concentrated ULight/Eu-antibody (from Perkin Elmer) mix solution: ULight-Streptavidin was diluted to a concentration of 100 nM (25 ng/mL final concentrations) and Eu-anti-phospho-Tyrosine (PT66) (from Perkin Elmer) was diluted to a concentration of 8 nM (2 ng/mL final concentration) in detection buffer.
(§2) Cell-free in vitro kinase assay was performed in 384 well plates. Two times concentrated compound solution (5 μL) was pipetted into a HTS 384SV Small Volume Plate. Four times concentrated Substrate/ATP mix (2.5 μL) solution was added along with 4 times concentrated Enzyme solution (2.5 μL). Plate was covered with TopSeal-A and incubated at room temperature for indicated time (Table 3). Four times concentrated Stop solution (5 μL, 10 mM final concentration) was added and incubated for 5 minutes at room temperature. Four times concentrated ULight/Eu-antibody mix solution (5 μL) was added and again plate was covered with TopSeal and incubated overnight at 4° C. TopSeal was removed and HTRF signal was measured at 615 nm and […] (excitation at 320 or 340 nm) on Tecan M1000 Multi mode plate reader. Ratio (665 nm/615 nm)×10^4 was calculated and IC50 values were deduced from Graph-pad prism 4.2.
A general note: In TR-FRET formats the signal depends on donor and acceptor labels being close together.

Experiment [2] has as its target T2, JAK1 (Homo sapiens, UniProt P23458).
T2 construct: JAK1 (aa 850-1154) and TYK2 (aa 871-1187) are expressed with an N-terminally fused GST-tag; GST (N); purchased Carna Bioscience, Inc; host or cells: baculovirus expression system
Briefly: In vitro enzyme assay (cell-free HTRF kinase assay), JAK1. The following applies: catalytic domain aa 850-1154, GST-tag; ATP 60 μM, SRCtide 400 nM, reaction 120 min. As to the method: as §1, §2

Experiment [3] deals with T3, JAK3 (Homo sapiens, UniProt P52333).
T3 construct: All enzymes only contain the catalytic domain; His (N); purchased Carna Bioscience, Inc; host or cells: baculovirus expression system
Briefly: In vitro enzyme assay (cell-free HTRF kinase assay), JAK3. The following applies: catalytic domain, His-tag; ATP 3 μM, SRCtide 100 nM, reaction 30 min. As to the method: as §1, §2

T3 sequence (P52333 822-1111 limits assumed): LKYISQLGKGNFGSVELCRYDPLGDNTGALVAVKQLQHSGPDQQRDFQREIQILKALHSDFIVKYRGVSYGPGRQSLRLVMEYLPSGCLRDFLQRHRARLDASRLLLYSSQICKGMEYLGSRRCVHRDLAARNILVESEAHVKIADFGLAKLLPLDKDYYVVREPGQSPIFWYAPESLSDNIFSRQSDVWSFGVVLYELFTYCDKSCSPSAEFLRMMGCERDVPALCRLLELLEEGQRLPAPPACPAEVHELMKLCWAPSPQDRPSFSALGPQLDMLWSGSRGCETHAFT
T1 sequence (O60674 849-1124 limits assumed): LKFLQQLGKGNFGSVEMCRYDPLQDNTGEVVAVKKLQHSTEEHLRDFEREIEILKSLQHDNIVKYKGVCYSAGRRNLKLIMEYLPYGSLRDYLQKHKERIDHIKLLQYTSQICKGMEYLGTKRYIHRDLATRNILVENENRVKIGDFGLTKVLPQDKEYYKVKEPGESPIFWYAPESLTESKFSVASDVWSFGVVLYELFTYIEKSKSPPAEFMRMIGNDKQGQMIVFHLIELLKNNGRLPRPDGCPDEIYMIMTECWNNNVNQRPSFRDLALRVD
T2 sequence (P23458 850-1154): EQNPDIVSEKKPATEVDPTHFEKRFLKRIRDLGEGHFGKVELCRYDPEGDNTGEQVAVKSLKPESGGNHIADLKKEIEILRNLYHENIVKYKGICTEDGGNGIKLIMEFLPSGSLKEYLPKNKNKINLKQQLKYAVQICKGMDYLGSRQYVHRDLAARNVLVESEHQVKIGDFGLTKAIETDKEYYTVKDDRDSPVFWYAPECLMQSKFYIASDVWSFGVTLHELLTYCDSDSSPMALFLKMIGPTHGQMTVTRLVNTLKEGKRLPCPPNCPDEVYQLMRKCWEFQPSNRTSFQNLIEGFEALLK

Take `Cc1noc(C)c1-c1cc(Cl)c(C(=O)n2ccc3c(NC(=O)C4CC4)nccc32)c(Cl)c1` [Compound No. 87, N-{1-[2,6-Dichloro-4-(3,5-dimethyl-1,2-oxazol-4-yl)benzoyl]-1H-pyrrolo[3,2-c]pyridin-4-yl}cyclopropanecarboxamide]: the IC50 (as a rule, the point on the concentration scale where inhibition reaches its midpoint) was less than 100 nM in experiment [1], less than 500 nM in experiment [2] and less than 1000 nM in experiment [3].
For `O=C(Nc1nccc2c1ccn2C(=O)c1c(Cl)cc(-c2cncnc2)cc1Cl)C1CC1` [Compound No. 89, N-{1-[2,6-Dichloro-4-(pyrimidin-5-yl)benzoyl]-1H-pyrrolo[3,2-c]pyridin-4-yl}cyclopropanecarboxamide], in that order: less than 50 nM, less than 1000 nM and less than 500 nM.
For `CCNC(=O)c1cc(Cl)c(C(=O)n2ccc3c(NC(=O)C4CC4)nccc32)c(Cl)c1` [Compound No. 93, 3,5-Dichloro-4-({4-[(cyclopropylcarbonyl)amino]-1H-pyrrolo[3,2-c]pyridin-1-yl}carbonyl)-N-ethylbenzamide], in that order: less than 1000 nM, less than 500 nM and less than 1000 nM.
For `N#Cc1cc(Cl)c(C(=O)n2ccc3cnccc32)c(Cl)c1` [Compound No. 95, 3,5-Dichloro-4-(1H-pyrrolo[3,2-c]pyridin-1-ylcarbonyl)benzonitrile], in that order: less than 500 nM, less than 1000 nM and less than 500 nM.
Turning to `O=C(Nc1nccc2c1ccn2C(=O)c1c(Cl)cc(CO)cc1Cl)C1CC1` [Compound No. 96, N-{1-[2,6-Dichloro-4-(hydroxymethyl)benzoyl]-1H-pyrrolo[3,2-c]pyridin-4-yl}cyclopropanecarboxamide], the results for the IC50 in experiment [1], in experiment [2] and in experiment [3] were less than 500 nM, less than 1000 nM and less than 500 nM, respectively.
In the case of `CCNC(=O)Nc1cc(Cl)c(C(=O)n2ccc3c(NC(=O)C4CC4)nccc32)c(Cl)c1` [Compound No. 103, N-(1-{2,6-Dichloro-4-[(ethylcarbamoyl)amino]benzoyl}-1H-pyrrolo[3,2-c]pyridin-4-yl)cyclopropanecarboxamide], the IC50 in experiment [1] was less than 500 nM; in experiment [2], less than 1000 nM; in experiment [3], less than 500 nM.
For the molecule `CC(C)NC(=O)c1cc(Cl)c(C(=O)n2ccc3c(NC(=O)C4CC4)nccc32)c(Cl)c1` [Compound No. 107, 3,5-Dichloro-4-({4-[(cyclopropylcarbonyl)amino]-1H-pyrrolo[3,2-c]pyridin-1-yl}carbonyl)-N-(propan-2-yl)benzamide], the IC50 in experiment [1], in experiment [2] and in experiment [3] was less than 500 nM throughout.
Regarding `COCCNC(=O)Nc1cc(Cl)c(C(=O)n2ccc3c(NC(=O)C4CC4)nccc32)c(Cl)c1` [Compound No. 111, N-[1-(2,6-Dichloro-4-{[(2-methoxyethyl)carbamoyl]amino}benzoyl)-1H-pyrrolo[3,2-c]pyridin-4-yl]cyclopropanecarboxamide], the half-inhibitory concentration (IC50) in experiment [1] is less than 500 nM; in experiment [2] it was less than 1000 nM; in experiment [3], less than 500 nM.
Consider `CN(CCO)C(=O)Nc1cc(Cl)c(C(=O)n2ccc3c(NC(=O)C4CC4)nccc32)c(Cl)c1` [Compound No. 112, N-[1-(2,6-Dichloro-4-{[(2-hydroxyethyl)(methyl)carbamoyl]amino}benzoyl)-1H-pyrrolo[3,2-c]pyridin-4-yl]cyclopropanecarboxamide], for which the IC50 in experiment [1] was less than 500 nM; in experiment [2], less than 1000 nM; in experiment [3], less than 500 nM.
For the molecule `O=C(Nc1cc(Cl)c(C(=O)n2ccc3c(NC(=O)C4CC4)nccc32)c(Cl)c1)NC1CC1` [Compound No. 113, N-(1-{2,6-Dichloro-4-[(cyclopropylcarbamoyl)amino]benzoyl}-1H-pyrrolo[3,2-c]pyridin-4-yl)cyclopropanecarboxamide], the IC50 in experiment [1] was less than 500 nM; in experiment [2], less than 1000 nM; in experiment [3], less than 500 nM.
As for `O=C(NCCO)Nc1cc(Cl)c(C(=O)n2ccc3c(NC(=O)C4CC4)nccc32)c(Cl)c1` [Compound No. 115, N-[1-(2,6-Dichloro-4-{[(2-hydroxyethyl)carbamoyl]amino}benzoyl)-1H-pyrrolo[3,2-c]pyridin-4-yl]cyclopropanecarboxamide], the figures for the concentration for half-maximal inhibition (IC50) in experiment [1], in experiment [2] and in experiment [3] were less than 500 nM, less than 1000 nM and less than 500 nM, respectively.
As for `O=C(Nc1cc2c(ccn2C(=O)c2c(Cl)cccc2Cl)cn1)C1CC1` [Compound No. 120, N-[1-(2,6-Dichlorobenzoyl)-1H-pyrrolo[3,2-c]pyridin-6-yl]cyclopropanecarboxamide], the IC50 was less than 50 nM in experiment [1], less than 100 nM in experiment [2] and less than 50 nM in experiment [3].
Turning to `CN(C)CCNC(=O)c1cc(Cl)c(C(=O)n2ccc3c(NC(=O)C4CC4)nccc32)c(Cl)c1` [Compound No. 122, 3,5-Dichloro-4-({4-[(cyclopropylcarbonyl)amino]-1H-pyrrolo[3,2-c]pyridin-1-yl}carbonyl)-N-[2-(dimethylamino)ethyl]benzamide], the concentration for half-maximal inhibition (IC50) was less than 500 nM in experiment [1], less than 1000 nM in experiment [2] and less than 100 nM in experiment [3].
For `NCCNC(=O)c1cc(Cl)c(C(=O)n2ccc3c(NC(=O)C4CC4)nccc32)c(Cl)c1` [Compound No. 127, N-(2-Aminoethyl)-3,5-dichloro-4-({4-[(cyclopropylcarbonyl)amino]-1H-pyrrolo[3,2-c]pyridin-1-yl}carbonyl)benzamide], the IC50 in experiment [1] was less than 100 nM; in experiment [2] it was less than 500 nM; in experiment [3], less than 50 nM.
As for `CCNC(=O)c1cc(Cl)c(C(=O)n2ccc3cnc(NC(=O)C4CC4)cc32)c(Cl)c1` [Compound No. 130, 3,5-dichloro-4-({6-[(cyclopropylcarbonyl)amino]-1H-pyrrolo[3,2-c]pyridin-1-yl}carbonyl)-N-ethylbenzamide], the figures for the half-maximal inhibitory concentration (IC50) in experiment [1], in experiment [2] and in experiment [3] were less than 50 nM, less than 500 nM and less than 100 nM, respectively.
`N#Cc1cc(Cl)c(C(=O)n2ccc3cnc(NC(=O)C4CC4)cc32)c(Cl)c1` [Compound No. 137, N-[1-(2,6-dichloro-4-cyanobenzoyl)-1H-pyrrolo[3,2-c]pyridin-6-yl]cyclopropanecarboxamide]: the figures for the IC50 in experiment [1], in experiment [2] and in experiment [3] were less than 50 nM, less than 500 nM and less than 500 nM, respectively.
`CCOC(=O)[C@H](C)NC(=O)c1cc(Cl)c(C(=O)n2ccc3c(NC(=O)C4CC4)nccc32)c(Cl)c1` [Compound No. 141, Ethyl N-[3,5-dichloro-4-({4-[(cyclopropylcarbonyl)amino]-1H-pyrrolo[3,2-c]pyridin-1-yl}carbonyl)benzoyl]alaninate]: the half-maximal inhibitory concentration (IC50) in experiment [1], in experiment [2] and in experiment [3] was less than 1000 nM in each case.
As to `O=C(NCC(O)CO)c1cc(Cl)c(C(=O)n2ccc3c(NC(=O)C4CC4)nccc32)c(Cl)c1` (stereo not drawn) [Compound No. 143, 3,5-Dichloro-4-({4-[(cyclopropylcarbonyl)amino]-1H-pyrrolo[3,2-c]pyridin-1-yl}carbonyl)-N-(2,3-dihydroxypropyl)benzamide], the values for the half-inhibitory concentration (IC50) in experiment [1], in experiment [2] and in experiment [3] were less than 500 nM, less than 1000 nM and less than 50 nM, respectively.
